{
  "source": "patent US20100249172A1",
  "about": "“9-CHLORO NOSCAPINE AND ITS USE IN TREATING CANCERS, INCLUDING DRUG-RESISTANT CANCERS” (EMORY UNIVERSITY, priority 2007, published 2010)",
  "key": {"MCF-7 cells [1]": {"tested_on": "MCF-7 cells", "assay": "Sulforhodamine B (SRB) cell proliferation assay", "assay_type": "cell-based", "details": "Homo sapiens, MCF7, MCF-7, 72 hours drug treatment", "protocol": "(§1) Sulforhodamine B (SRB) assay: The cell proliferation assay was performed in 96-well plates as described previously. Adherent cells (MCF-7 and MDA-MB-231) were seeded in 96-well plates at a density of 5×10^3 cells per well. They were treated with increasing concentrations of the halogenated analogs the next day while in log-phase growth. After 72 hours of drug treatment, cells were fixed with 50% trichloroacetic acid and stained with 0.4% sulforhodamine B dissolved in 1% acetic acid. After 30 minutes, cells were then washed with 1% acetic acid to remove the unbound dye. The protein-bound dye was extracted with 10 mM Tris base to determine the optical density at 564-nm wavelength.\n(§2) Suspension cells (CEM) were seeded into 96-well plates at a density of 5×10^3 cells per well and were treated with increasing concentrations of all halogenated analogs for 72 hours. Measurement of cell proliferation was performed colorimetrically by 3-(4,5-dimethylthiazol-2-yl)-5-(3-carboxymethoxyphenyl)-2-(4-sulphophenyl)-2H-tetrazolium, inner salt (MTS) assay, using the CellTiter96 AQueous One Solution Reagent (Promega, Madison, Wis.). Cells were exposed to MTS for 3 hours and absorbance was measured using a microplate reader (Molecular Devices, Sunnyvale, Calif.) at an optical density (OD) of 490 nm. […]"}, "MDA-MB-231 cells": {"tested_on": "MDA-MB-231 cells", "assay": "Sulforhodamine B (SRB) cell proliferation assay", "assay_type": "cell-based", "details": "Homo sapiens, MDA-MB-231, 72 hours drug treatment", "protocol": "as §1, §2"}, "[2]": {"tested_on": "normal human fibroblast cells", "assay": "Cell cycle progression in normal cells", "assay_type": "cell-based"}, "CEM cells": {"tested_on": "CEM cells", "assay": "MTS cell proliferation assay", "assay_type": "cell-based, human", "protocol": "Suspension cells (CEM) were seeded into 96-well plates at a density of 5×10^3 cells per well and were treated with increasing concentrations of all halogenated analogs for 72 hours. Measurement of cell proliferation was performed colorimetrically by 3-(4,5-dimethylthiazol-2-yl)-5-(3-carboxymethoxyphenyl)-2-(4-sulphophenyl)-2H-tetrazolium, inner salt (MTS) assay, using the CellTiter96 AQueous One Solution Reagent (Promega, Madison, Wis.). Cells were exposed to MTS for 3 hours and absorbance was measured using a microplate reader (Molecular Devices, Sunnyvale, Calif.) at an optical density (OD) of 490 nm. The percentage of cell survival as a function of drug concentration for both the assays was then plotted to determine the IC50 value, which stands for the drug concentration needed to prevent cell proliferation by 50%.\nHaving identified tubulin as the target molecule, the pharmacological study was extended at the cellular level to determine if all the halogenated analogs affected cancer cell proliferation. As a preliminary screen, 9-chloro-nos and noscapine were evaluated for their antiproliferative activity in three human cancer cell lines; human breast adenocarcinoma cells (estrogen- and progesterone-receptor positive, MCF-7 and estrogen- and progesterone-receptor negative, MDA-MB-231) and human lymphoblastoid cells CEM. […]"}, "MCF-7 cells [3]": {"tested_on": "MCF-7 cells", "assay": "Cell cycle analysis by flow cytometry (propidium iodide)", "assay_type": "cell-based, human", "details": "for G0/G1 % / G2/M % / S % / Sub-G1 %: mean ± S.E.M.", "protocol": "The flow cytometric evaluation of the cell cycle status was performed as described previously. Briefly, 2×10^6 cells were centrifuged, washed twice with ice-cold PBS, and fixed in 70% ethanol. Tubes containing the cell pellets were stored at 4° C. for at least 24 hours. Cells were then centrifuged at 1000×g for 10 min and the supernatant was discarded. The pellets were washed twice with 5 ml of PBS and then stained with 0.5 ml of propidium iodide (0.1% in 0.6% Triton-X in PBS) and 0.5 ml of RNase A (2 mg/ml) for 45 minutes in dark. Samples were then analyzed on a FACSCalibur flow cytometer (Beckman Coulter Inc., Fullerton, Calif.).\nTo investigate the precise mechanisms of cell death, the effect of 9-cloro-noscapine and other halogenated noscapine analogs on percent G2/M cells (mitotic index) and percent sub-G1 cells (apoptotic index) was examined as a function of dose and time in MCF-7 cells using fluorescence activated cell sorting (FACS) analysis. The effect of all compounds including noscapine was evaluated at three doses-5 μM, 10 μM and 25 μM for 0, 24, 48 and 72 hours of drug treatment. […] Fluorescently labeled DNA is a good indicator of cell cycle progression and cell death. An unreplicated complement of diploid (2N) DNA cells represents the G1 phase while duplicated tetraploid (4N) DNA cells represent G2 and M phases. Cells in the process of DNA duplication between diploid and tetraploid peaks represent S phase when DNA is being synthesized. Less than diploid DNA appears in populations of dying cells that degrade their DNA to different extents. Treatment of MCF-7 cells with these compounds for 0, 24, 48 and 72 hours led to profound perturbations of the cell cycle profile at 25 μM (FIGS. 3 A-D). […] The distribution of cell population over G0/G1, S, G2/M and sub-G1 phases of the cell cycle for 25 μM concentration is shown in Table 1."}},
  "data": [
    {"compound": "COc1ccc2c(c1OC)C(=O)O[C@@H]2[C@H]1c2c(c(Cl)c3c(c2OC)OCO3)CCN1C", "note": "[9-Cl-nos, (S)-3-((R)-9-chloro-4-methoxy-6-methyl-5,6,7,8-tetrahydro-[1,3]dioxolo[4,5-g]isoquinolin-5-yl)-6,7-dimethoxyisobenzofuran-1(3H)-one]", "values": [
      {"measurement": "IC50", "setting": "MCF-7 cells [1]", "value": "1900 ± 300", "unit": "nM"},
      {"measurement": "IC50", "setting": "MDA-MB-231 cells", "value": "3500 ± 400", "unit": "nM"},
      {"measurement": "effect on cell cycle of normal cells", "setting": "[2]", "value": "without affecting the cell cycle"},
      {"measurement": "inhibition of cell proliferation (in words)", "setting": "CEM cells", "value": "effectively inhibits cell proliferation"},
      {"measurement": "IC50", "setting": "CEM cells; Homo sapiens, CCRF-CEM, 72 hours", "value": "1200 ± 300", "unit": "nM"},
      {"measurement": "G0/G1 %", "setting": "MCF-7 cells [3]; 25 μM, 0 h", "value": "69 ± 5.6", "unit": "%"},
      {"measurement": "G2/M %", "setting": "MCF-7 cells [3]; 25 μM, 0 h", "value": "20.7 ± 3.4", "unit": "%"},
      {"measurement": "S %", "setting": "MCF-7 cells [3]; 25 μM, 0 h", "value": "7.5 ± 1.6", "unit": "%"},
      {"measurement": "Sub-G1 %", "setting": "MCF-7 cells [3]; 25 μM, 0 h", "value": "1.4 ± 0.5", "unit": "%"},
      {"measurement": "G0/G1 %", "setting": "MCF-7 cells [3]; 25 μM, 24 h", "value": "11.5 ± 2.7", "unit": "%"},
      {"measurement": "G2/M %", "setting": "MCF-7 cells [3]; 25 μM, 24 h", "value": "59.7 ± 5.2", "unit": "%"},
      {"measurement": "S %", "setting": "MCF-7 cells [3]; 25 μM, 24 h", "value": "4.3 ± 1.4", "unit": "%"},
      {"measurement": "Sub-G1 %", "setting": "MCF-7 cells [3]; 25 μM, 24 h", "value": "15.3 ± 2.5", "unit": "%"},
      {"measurement": "accumulation of cells in the G2/M phase (in words)", "setting": "MCF-7 cells [3]; 25 μM, 24 hours", "value": "massive accumulation of cells in the G2/M phase"},
      {"measurement": "G0/G1 %", "setting": "MCF-7 cells [3]; 25 μM, 48 h", "value": "8 ± 3.3", "unit": "%"},
      {"measurement": "G2/M %", "setting": "MCF-7 cells [3]; 25 μM, 48 h", "value": "42.4 ± 3.8", "unit": "%"},
      {"measurement": "S %", "setting": "MCF-7 cells [3]; 25 μM, 48 h", "value": "4 ± 1.1", "unit": "%"},
      {"measurement": "Sub-G1 %", "setting": "MCF-7 cells [3]; 25 μM, 48 h", "value": "37.8 ± 3.2", "unit": "%"},
      {"measurement": "G0/G1 %", "setting": "MCF-7 cells [3]; 25 μM, 72 h", "value": "5.9 ± 1.9", "unit": "%"},
      {"measurement": "G2/M %", "setting": "MCF-7 cells [3]; 25 μM, 72 h", "value": "35.3 ± 3.9", "unit": "%"},
      {"measurement": "S %", "setting": "MCF-7 cells [3]; 25 μM, 72 h", "value": "4.1 ± 1.4", "unit": "%"},
      {"measurement": "Sub-G1 %", "setting": "MCF-7 cells [3]; 25 μM, 72 h", "value": "50.2 ± 2.5", "unit": "%"},
      {"measurement": "percent sub-G1 cells compared with noscapine", "setting": "MCF-7 cells [3]; lower doses (5 μM and 10 μM), 72 hours", "value": "higher"}
    ]}
  ]
}
